Results reported in US9549922B2, “Use of eribulin and lenvatinib as combination therapy for treatment of cancer” (priority 2013, dated 2017).
Entries after “also recorded” stand apart in the source; their conditions may differ.

Columns and labels:
[1] = system: PC-9 human non-small cell lung cancer xenografts; assay: Antitumor activity in PC-9 human non-small cell lung cancer xenografts (tumor volume); assay type: in vivo, mice; settings: single treatment: E7389 1.5 mg/kg i.v. Q7Dx2; E7080 10 mg/kg p.o. Q1Dx12
Method: (§1) Human non-small cell lung cancer cell lines, NCI-H1993 and PC-9, were maintained in monolayer cultures in RPMI-1640 medium supplemented with 10% Fetal Bovine Serum and 1% of Penicillin-Streptomycin-Amphotericin at 37° C. in a 5% CO2 humidified incubator. On the day of inoculation, cells were harvested by Trypsinization, washed, and mixed 1:1 (v/v) with medium/GelTrex. NCI-H1993 and PC-9 human non-small cell lung cancer cells (10×10^6 cells per animal) were inoculated subcutaneously near the right axillary area using a 26-gauge needle in a 0.1 mL volume in female immuncompromised mice (Mouse: BALB/c Slc nu/nu; Japan SLC, Inc.).
(§2) The experiment consisted of a no inject control group, a single agent drug-treated group for either E7389 (1.5 mg/kg) or E7080 (10 mg/kg), and combination drug-treated groups. Each group was composed of five mice. […] Following randomization, drug treatment was initiated. E7389 (1.5 mg/kg) was intravenously administered weekly for two weeks (Q7Dx2). E7080 was orally administered daily for 12 days (Q1Dx12). Both drugs were administered at a volume of 0.1 mL per 10 g body weight.
(§3) Tumor volume was determined by caliper measurements (mm) using the formula Tumor volume (mm^3)=length (mm)×width^2(mm^2)×½
(§4) The mean±SD for tumor volume for each experimental group was calculated. […]

in vivo = settings: athymic, mouse
[2] = system: NCI-H1993 human non-small cell lung cancer xenografts; assay: Antitumor activity in NCI-H1993 human non-small cell lung cancer xenografts (tumor volume); assay type: in vivo, mice; settings: single treatment: E7389 1.5 mg/kg i.v. Q7Dx2; E7080 10 mg/kg p.o. Q1Dx12
Method: as §1, §2, §3, §4

[3] = system: A375 human malignant melanoma xenografts; assay: Antitumor activity in A375 human malignant melanoma xenograft model (tumor volume); assay type: in vivo; settings: single agent at highest dose: E7389 3.0 mg/kg i.v. Q7Dx2; E7080 15 mg/kg p.o. Q1Dx14; female athymic mice
Description: Following randomization, drug treatment was initiated.
A value of P<0.05 was considered statistically significant.

[4] = Relative body weight change in A375 xenograft study; assay type: in vivo, mice; settings: E7389 alone at 3.0 mg/kg i.v. Q7Dx2
Method: The experiment consisted of a vehicle-treated control group, a single agent drug-treated group for either E7389 or E7080, and three combination drug-treated groups (summarized in Table 1). Each group was composed of six mice for a total of 48 mice on the first day of treatment. […] Following randomization, drug treatment was initiated. E7080 was orally administered daily for 14 days (Q1Dx14) at a volume of 0.1 mL per 10 g body weight. E7389 (0.05 mg/kg) was intravenously administered daily for 14 days. In the combination group, E7389 was administered three hours after oral administration of E7080. […]
The general health of the mice was monitored daily. Tumor volume was determined by caliper measurements (mm) using the formula (1×w^2)/2=mm^3, where 1 and w refer to the larger and smaller perpendicular dimensions collected at each measurement. Tumor dimensions and body weight were recorded twice per week starting the first day of treatment. Relative body weight was calculated as follows: Relative body weight=(body weight on day of measurement)/(body weight on first day of treatment).
The data generated consisted of group mean body weights at each measurement and group mean tumor volumes at each measurement. The mean±SEM for tumor volume and relative body weight for each experimental group was calculated.

SMILES	antitumor activity (tumor volume) [1]	MTD at 14 days (in vivo) [mg/kg]	antitumor activity (tumor volume) [2]	antitumor effect (tumor volume) [3]	relative body weight change [4]	MTD at 14 days (in vivo; other: E7389 i.v., E7080 p.o.) [mg/kg]
COc1cc2nccc(Oc3ccc(NC(=O)NC4CC4)c(Cl)c3)c2cc1C(N)=O.CS(=O)(=O)O [E7080, 4-[3-chloro-4-[[(cyclopropylamino)carbonyl]amino]phenoxy]-7-methoxy-6-quinolinecarboxamide, methanesulfonate (1:1)]	significant antitumor activity	15	significant antitumor activity	tumor growth delay, but not tumor regression		
C=C1C[C@@H]2CC[C@@]34C[C@H]5O[C@@H]6[C@@H](O3)[C@H]3O[C@H](CC[C@@H]3O[C@H]6[C@H]5O4)CC(=O)C[C@@H]3[C@@H](OC)[C@@H](C[C@H](O)CN)O[C@H]3C[C@H]3O[C@@H](CC[C@@H]1O2)C[C@@H](C)C3=C.CS(=O)(=O)O [E7389, (2R,3R,3aS,7R,8aS,9S,I0aR,11S,12R,13aR,13bS,15S,18S,21S,24S,26R,28R,29aS)-2-[(2S)-3-amino-2-hydroxypropyl]hexacosahydro-3-methoxy-26-methyl-20,27-bis(methylene)-11,15:18,21:24,28-triepoxy-7,9-ethano-12,15-methano-9H,15H-furo[3,2-i]furo[2′,3′:5,6]pyrano[4,3-b][1,4]dioxacyclopentacosin-5(4H)-one, methanesulfonate (salt)]	significant antitumor activity		significant antitumor activity	tumor growth delay, but not tumor regression; also recorded: strong antitumor activity	Body weight loss was observed	3
